Consider 35 compounds from patent publication US20260200946A1, “KRAS(G12V) INHIBITORS” (Ranok Therapeutics (Hangzhou) Co. Ltd., priority 2022, published 2026).

For one test, the system named is NCIH727 cells. Put plainly: Cancer cell line proliferation (CellTiter-Glo), NCI-H727. Type of test: cell-based. To be noted: Homo sapiens, 72 h, NCIH727 lung carcinoid, heterozygous G12V. How it is done:
Cell lines were cultured essentially according to ATCC recommendations.
SW620 and NCIH727 cells were plated in 384-well tissue culture plates at 1,000 cells/well and incubated at 37° C./5% CO2 for 72 hr in 40 μl of media. […] Each cell line was then treated with test compounds at various concentrations with a final concentration of 0.5% DMSO/well, and then incubated at 37° C./5% CO2 for 72 hr. 40 μl of CellTiter-Glo® Reagent (Promega Corporation, Madison, WI) was added to each well and processed according manufacturer's protocol. Results were analyzed and IC50 values were calculated in GraphPad 8.0 software.
By EC50 is commonly meant the concentration at which the effect is half-maximal. Compound `C#Cc1c(F)ccc2cc(O)cc(-c3nc(OC)c4c(N5CC6CCC(C5)N6C(=O)CCN(C)OC)nc(OCC5(CN6CC7CC7C6)CC5)nc4c3F)c12` (centres unmarked) [Example 168] had an EC50 of 100 to 1000 nM.

Compound `[2H]C([2H])([2H])Oc1nc(-c2cc(O)cc3ccc(F)c(C#C)c23)c(F)c2nc(OCC3(CN4CC5CC5C4)CC3)nc(N3CC4CCC(C3)N4C(=O)C(C#N)CC(F)(F)F)c12` (centres unmarked) [Example 125] registered an EC50 of 100 to 1000 nM.

Consider `Cc1cc(N)nc(-c2c(Cl)cc3c(N4CC5CCC(C4)N5C(=O)CCOC(F)(F)F)nc(OCC4(CN5CC6CC6C5)CC4)nc3c2F)c1C(F)(F)F` (centres unmarked) [Example 174], for which the EC50 is greater than 1000 nM.

Compound `C#Cc1c(F)ccc2cc(O)cc(-c3nc(OC)c4c(N5CC6CCC(C5)N6C(=O)C(C)=O)nc(OCC5(CN6CC7CC7C6)CC5)nc4c3F)c12` (centres unmarked) [Example 124] displayed an EC50 of 100 to 1000 nM.

As to `C#Cc1c(F)ccc2cc(O)cc(-c3nc(OC)c4c(N5CC6CCC(C5)N6C(=O)NC(C)C(F)(F)F)nc(OCC5(CN6CC7CC7C6)CC5)nc4c3F)c12` (centres unmarked) [Example 163], the 50% effective concentration (EC50) lay in the range of 100 to 1000 nM.

`C#Cc1c(F)ccc2cc(O)cc(-c3nc(OC)c4c(N5CC6CCC(C5)N6C(=O)NC5CCC(F)(F)C5)nc(OCC5(CN6CCC(F)CC6)CC5)nc4c3F)c12` (centres unmarked) [Example 79] yielded a 50% effective concentration (EC50) of 100 to 1000 nM.

As to `C#Cc1c(F)ccc2cc(O)cc(-c3nc(C#C)c4c(N5CC6CCC(C5)N6C(=O)NC5CC5)nc(OCC5(CN6CCC(F)CC6)CC5)nc4c3F)c12` [Example 95], the EC50 fell in the range of 100 to 1000 nM.

On to `C#Cc1c(F)ccc2cc(O)cc(-c3nc(OC)c4c(N5CC6CCC(C5)N6C(=O)CC(C)=O)nc(OCC5(CN6CC7CC7C6)CC5)nc4c3F)c12` (centres unmarked) [Example 122], for which the EC50 fell in the range of 100 to 1000 nM.

On to `C#Cc1c(F)ccc2cc(O)cc(-c3nc(C#C)c4c(N5CC6CCC(C5)N6C(=O)NCC(F)(F)F)nc(OCC5(CN6CCC(F)CC6)CC5)nc4c3F)c12` [Example 100], for which the EC50 lay in the range of 100 to 1000 nM.

The compound `C#Cc1c(F)ccc2cc(O)cc(-c3nc(OC)c4c(N5CC6CCC(C5)N6C(=O)CC(C)C(F)(F)F)nc(OCC5(CN6CC7CC7C6)CC5)nc4c3F)c12` (centres unmarked) [Example 181] displayed an EC50 of 100 to 1000 nM.

In the case of `C#Cc1c(F)ccc2cc(O)cc(-c3nc(OC)c4c(N5CCN(C(=O)CC#N)[C@@H](CC#N)C5)nc(OCC5(CN6CC7CC7C6)CC5)nc4c3F)c12` (some centres unmarked) [Example 117], the EC50 is greater than 1000 nM.

As to `C#Cc1c(F)ccc2cc(O)cc(-c3nc(OC)c4c(N5CC6CCC(C5)N6C(=O)CC(C)(C)C#N)nc(OCC5(CN6CC7CC7C6)CC5)nc4c3F)c12` (centres unmarked) [Example 148], the EC50 was less than 100 nM.

Turning to `C#Cc1c(F)ccc2cc(O)cc(-c3nc(OC)c4c(N5CC6CCC(C5)N6C(=O)NCC(C)(C)F)nc(OCC5(CN6CCC(F)CC6)CC5)nc4c3F)c12` [Example 67], the EC50 was in the range of 100 to 1000 nM.

Regarding `C#Cc1c(F)ccc2cc(O)cc(-c3nc(OC)c4c(N5CC6CCC(C5)N6C(=O)NC56CC(C5)C6)nc(OCC5(CN6CC7CC7C6)CC5)nc4c3F)c12` (centres unmarked) [Example 198], the EC50 was less than 100 nM.

`C#Cc1c(F)ccc2cc(O)cc(-c3nc(OC)c4c(N5CC6CCC(C5)C6C(=O)NCC(F)(F)F)nc(OCC5(CN6CC7CC7C6)CC5)nc4c3F)c12` (centres unmarked) [Example 170] displayed an EC50 greater than 1000 nM.

For `C#Cc1c(F)ccc2cc(O)cc(-c3nc(OC)c4c(N5CC6CCC(C5)N6C(=O)[C@@H]5CC5(F)F)nc(OCC5(CN6CCC(F)CC6)CC5)nc4c3F)c12` [Example 72], the EC50 lay in the range of 100 to 1000 nM.

For `C#Cc1c(F)ccc2cc(O)cc(-c3nc(OC)c4c(N5CC6CCC(C5)N6C(=O)C(C#N)CC5CC5)nc(OCC5(CN6CC7CC7C6)CC5)nc4c3F)c12` (centres unmarked) [Example 186], the EC50 is greater than 1000 nM.

On to `C#Cc1c(F)ccc2cc(O)cc(-c3nc(OC)c4c(N5CC6CCC(C5)N6C(=O)[C@H]5CC5(F)F)nc(OCC5(CN6CC7CC7C6)CC5)nc4c3F)c12` (some centres unmarked) [Example 102], for which the concentration for a half-maximal effect (EC50) was less than 100 nM.

`C#Cc1c(F)ccc2cc(O)cc(-c3nc(OC)c4c(N5CC6CCC(C5)N6C(=O)C5CC(F)(F)C5(F)F)nc(OCC5(CN6CC7CC7C6)CC5)nc4c3F)c12` (centres unmarked) [Example 167] displayed an EC50 greater than 1000 nM.

The compound `C#Cc1c(F)ccc2cc(O)cc(-c3nc(OC)c4c(N5CC6CCC(C5)N6C(=O)NCC5(F)COC5)nc(OCC5(CN6CCC(F)CC6)CC5)nc4c3F)c12` [Example 75] yielded an EC50 of 100 to 1000 nM.

On to `C#Cc1c(F)ccc2cc(O)cc(-c3nc(OC)c4c(N5CC6CCC(C5)N6C(=O)NC(C)C#N)nc(OCC5(CN6CCC(=C)CC6)CC5)nc4c3F)c12` (centres unmarked) [Example 93], for which the EC50 was less than 100 nM.

`C#Cc1c(F)ccc2cc(O)cc(-c3nc(OC)c4c(N5CC6CCC(C5)N6C(=O)NC5CC(C#N)C5)nc(OCC5(CN6CC7CC7C6)CC5)nc4c3F)c12` (centres unmarked) [Example 145]: the EC50 was 100 to 1000 nM.

On to `C#CCNC(=O)N1C2CCC1CN(c1nc(OCC3(CN4CCC(F)CC4)CC3)nc3c(F)c(-c4cc(O)cc5ccc(F)c(C#C)c45)nc(OC)c13)C2` [Example 88], for which the EC50 is less than 100 nM.

Regarding `C#Cc1c(F)ccc2cc(O)cc(-c3nc(OC)c4c(N5CC6CCC(C5)N6C(=O)NC5CCC5)nc(OCC5(CN6CCC(F)CC6)CC5)nc4c3F)c12` [Example 89], the EC50 is less than 100 nM.

Turning to `C#Cc1c(F)ccc2cc(O)cc(-c3nc(OC)c4c(N5CC6CCC(C5)N6C(=O)C5CNC(=O)C5)nc(OCC5(CN6CC7CC7C6)CC5)nc4c3F)c12` (centres unmarked) [Example 149], the half-maximal effective concentration (EC50) is greater than 1000 nM.

In the case of `C#Cc1c(F)ccc2cc(O)cc(-c3nc(OC)c4c(N5CC6CCC(C5)N6C(=O)NCC(F)(F)F)nc(OCC5(CN6CCC(C(F)(F)F)CC6)CC5)nc4c3F)c12` [Example 136], the EC50 was less than 100 nM.

In turn, `C#Cc1c(F)ccc2cc(O)cc(-c3nc(OC)c4c(N5CC6CCC(C5)N6C(=O)N5CC(C(F)F)C5)nc(OCC5(CN6CC7CC7C6)CC5)nc4c3F)c12` (centres unmarked) [Example 201] showed an EC50 of 100 to 1000 nM.

The compound `C#Cc1c(F)ccc2cc(O)cc(-c3nc(OC)c4c(N5CC6CCC(C5)N6C(=O)CCOC)nc(OCC5(CN6CC7CC7C6)CC5)nc4c3F)c12` (centres unmarked) [Example 108] had a half-maximal effective concentration (EC50) of 100 to 1000 nM.

Turning to `C#Cc1c(F)ccc2cc(O)cc(-c3nc(OC)c4c(N5CC6CCC(C5)N6C(=O)N[C@@H]5C[C@H]5F)nc(OCC5(CN6CCC(F)CC6)CC5)nc4c3F)c12` [Example 73], the EC50 fell in the range of 100 to 1000 nM.

`C#Cc1c(F)ccc2cc(O)cc(-c3nc(OC)c4c(N5CC6CCC(C5)N6C(=O)C(C)C#N)nc(OCC5(CN6CC7CC7C6)CC5)nc4c3F)c12` (centres unmarked) [Example 123] showed an EC50 of 100 to 1000 nM.

`C#Cc1c(F)ccc2cc(O)cc(-c3nc(OC)c4c(N5CC6CCC(C5)N6C(=O)N(C)CC#N)nc(OCC5(CN6CC7CC7C6)CC5)nc4c3F)c12` (centres unmarked) [Example 110]: the EC50 was greater than 1000 nM.

For the compound `C#Cc1c(F)ccc2cc(O)cc(-c3nc(OC)c4c(N5CC6CCC(C5)N6C(=O)c5cocn5)nc(OCC5(CN6CC7CC7C6)CC5)nc4c3F)c12` (centres unmarked) [Example 153], the EC50 fell in the range of 100 to 1000 nM.

For `C#Cc1c(F)ccc2cc(O)cc(-c3nc(OC)c4c(N5CC6CCC(C5)N6C)nc(OCC5(CN6CCC(C(F)(F)F)CC6)CC5)nc4c3F)c12` [Example 142], the EC50 was greater than 1000 nM.

`C#Cc1c(F)ccc2cc(O)cc(-c3nc(OC)c4c(N5CC6CCC(C5)N6C(=O)N5CC(F)C5)nc(OCC5(CN6CC7CC7C6)CC5)nc4c3F)c12` (centres unmarked) [Example 200]: the EC50 is less than 100 nM.

Still in this test, the particulars now being: NCIH727 lung carcinoid, heterozygous G12V, 72 hr.
In turn, `C#Cc1c(F)ccc2cc(O)cc(-c3nc(OC)c4c(N5CC6CCC(C5)N6C(=O)NC5CC(F)C5)nc(OCC5(CN6CCC(F)CC6)CC5)nc4c3F)c12` (centres unmarked) [Example 92] yielded an EC50 of 100 to 1000 nM.
